What all share (type): in vitro ADME
Data set [1] is described as follows: Metabolic stability in hepatocytes, SD rats. How it is done: (§1) Purpose of the assay: Metabolic stabilities of assay compounds in hepatocytes of CD-1 mice, SD rats, beagle dogs, cynomolgus monkeys, and human were assayed, respectively.
(§2) Procedure of the assay: Several 96-well sample precipitation plates were prepared and named T0, T15, T30, T60, T90, T120, TO-MC, T120-MC and blank substrates, respectively. The recovery medium and incubation medium were taken out in advance and placed in a 37° C. water bath for pre-heating. Cryopreserved hepatocytes were removed from the liquid nitrogen tank and immediately immersed in a 37° C. water bath (approximately 90 seconds). After the cryopreserved hepatocytes had thawed and loosened, they were poured into a centrifuge tube containing 40 mL of recovery medium, and the tube was gently inverted to allow the cells to be resuspended in the recovery medium. The cells were centrifuged at 100×g at room temperature for 5 min, and the supernatant was removed. The hepatocytes were resuspended in an appropriate volume of incubation medium, and the cell viability was calculated by Trypan Blue staining method. 198 μL of hepatocyte suspension (0.51×10^6 cells/mL) was added to the preheated incubation plate. For the culture medium control group, 198 μL of hepatocyte-free incubation medium was added to T0-MC and T120-MC incubation plate. All incubation plates were pre-incubated in a 37° C. incubator for 10 minutes. Then 2 μL of working solutions of the assay sample and the control compound were added, respectively, and the mixture was mixed well. The incubation plate was immediately put into the shaker in the incubator, and the reaction was initiated while starting the timer. For each time point of each compound, 2 duplicate samples were prepared. The incubation conditions were 37° C., saturated humidity, and 5% CO2. In the assay system, the final concentration of the assay sample was 1 μM, the final concentration of the control sample was 3 μM, the final concentration of hepatocytes was 0.5×10^6 cells/mL, and the final concentration of the total organic solvent was 0.96%, of which the final concentration of DMSO was 0.1%. At the end of the incubation for the corresponding time point, the incubation plate was taken out, and 25 μL of a mixture of compound and control compound with cells was added to the sample plate containing 125 μL of stop solution (200 ng/mL tolbutamide and labetalol in acetonitrile). For the Blank sample plate, 25 μL of hepatocyte-free incubation medium was added directly. After sealing, all sample plates were shaken on a shaker at 600 rpm for 10 minutes, and then centrifuged at 3220×g for 20 minutes. Supernatants of the assay sample and the control sample were diluted with ultrapure water at a ratio of 1:3. All samples were mixed well and analyzed by LC/MS/MS.

The nature of data set [2]: Metabolic stability in hepatocytes, cynomolgus monkeys. How it is done: as §1, §2
Data set [3] is described as follows: Metabolic stability in hepatocytes, beagle dogs. As to the method:
as §1, §2

Data set [4] can be described thus: In vitro stability in liver microsomes, CD-1 mice. The conditions noted are these: CD-1 mice liver microsomes, 0.5 mg/mL. How it is done: (§3) Purpose of the assay: Metabolic stabilities of the assay compounds in liver microsomes of CD-1 mice, SD rats, beagle dogs, cynomolgus monkeys, and human were assayed, respectively.
(§4) Procedure of the assay: Two 96-well incubation plates were prepared and named T60 incubation plate and NCF60 incubation plate, respectively. 445 μL of microsomal working solutions (liver microsomal protein concentration of 0.56 mg/mL) were added to the T60 incubation plate and the NCF60 incubation plate, respectively, and then the above incubation plates were pre-incubated in a 37° C. water bath for about 10 minutes.
(§5) After the pre-incubation, 5 μL of working solutions of the assay sample or the control compound were added to the T60 incubation plate and the NCF60 incubation plate, respectively, and the mixture was mixed well. 50 μL of potassium phosphate buffer was added to each well of the NCF60 incubation plate to initiate the reaction. 180 μL of stop solution (200 ng/mL tolbutamide and 200 ng/mL labetalol in acetonitrile) and 6 uL of NADPH regeneration system working solution were added to the T0 stop plate, and 54 μL of sample was transferred from T60 incubation plate to T0 stop plate (generation of TO sample). The reaction was initiated by adding 44 μL of NADPH regeneration system working solution to each well of the T60 incubation plate. Only 54 μL of microsome working solution, 6 uL of NADPH regeneration system working solution and 180 μL of stop solution were added to the Blank plate. Therefore, in samples of the assay compound or the control compound, the final reaction concentration of compound, testosterone, diclofenac and propafenone was 1 μM, the concentration of liver microsomes was 0.5 mg/mL, and the final reaction concentrations of DMSO and acetonitrile in the reaction system were 0.01% (v/v) and 0.99% (v/v), respectively.
(§6) After an appropriate time (e.g., 5, 15, 30, 45 and 60 minutes) of incubation, 180 μL of stop solutions (200 ng/mL tolbutamide and 200 ng/mL labetalol in acetonitrile) were added to the sample wells of each stop plate, respectively. 60 μL of sample was removed from the T60 incubation plate to stop the reaction. All sample plates were shaken well and then centrifuged at 3220×g for 20 minutes. Then 80 μL of supernatant was taken out from each well, and diluted in 240 μL of pure water for liquid chromatography-tandem mass spectrometry analysis. All samples were injected and analyzed by liquid chromatography-tandem mass spectrometry.
In general terms: Microsomes from liver hold many membrane-bound enzymes, among them those of drug oxidation.

The nature of data set [5]: In vitro stability in liver microsomes, human. The conditions noted are these: 0.5 mg/mL. How it is done:
as §3, §4, §5, §6

Data set [6] in a line: Stability assay in whole blood, CD-1 mice. The conditions noted are these: CD-1 mice whole blood, 5 μM, 37° C. How it is done:
(§7) Purpose of the assay: Stabilities of the assay compounds in whole blood of CD-1 mice, SD rats, Beagle dogs and cynomolgus monkeys were assayed, respectively.
(§8) Procedure of the assay: On the day of the assay or the day before the assay, fresh whole blood from CD-1 mice, SD rats, beagle dogs, and cynomolgus monkeys was collected using anticoagulant EDTA-K2. Prior to the start of the assay, the whole blood was mixed with PBS in 1:1 (v:v) and the mixture was preheated in a 37° C. water bath for 10-20 minutes. […] […] All samples were incubated in a 37° C. water bath. The final incubation concentration of the compound was 5 μM and the final incubation concentration of the control compound was 2 μM. At the end of incubation for each time point, the corresponding incubation plate was removed and 100 μL of ultrapure water was immediately added to the corresponding sample wells, and mixed well. 800 μL of a solution of 200 ng/mL tolbutamide and labetalol in acetonitrile was added to precipitate the protein. The sample plates were sealed and shaken well, and then centrifuged at 3220×g for 20 min. 150 μL of supernatant was taken out and analyzed by LC/MS/MS.

A short description of data set [7]: Stability assay in whole blood, SD rats. The conditions noted are these: 5 μM, 37° C. How it is done:
as §7, §8

Data set [8] is described as follows: Stability assay in whole blood, beagle dogs. To be noted: 5 μM, 37° C. As to the method: as §7, §8

A value given as a limit tells only on which side of the number the result lay.

On to `C=C(F)C(=O)N1CCN(c2nc(OCC3CCCN3C)nc3c2COC(c2c(F)c(N)cc(C)c2C(F)(F)F)C3)CC1CC#N.Cl` (single isomer, unassigned) [Compound 8B hydrochloride], for which the “CLint(hep)” value in data set [1] (1 μM) is recorded as 7.5 μL/min/10^6; in data set [2] (1 μM), 10.2 μL/min/10^6; in data set [3] (1 μM) it was below 6.4 μL/min/10^6. In addition, the “CLint(liver)” value in data set [1] (1 μM) was 35.0 mL/min/kg; in data set [2] (1 μM), 36.7 mL/min/kg; in data set [3] (1 μM), below 44 mL/min/kg; in data set [4] (1 μM), 436.1 mL/min/kg; in data set [5] (1 μM), 20.7 mL/min/kg. Further, the T1/2 in data set [1] (1 μM) is 185.2 min; in data set [2] (1 μM), 136.1 min; in data set [3] (1 μM) it was above 216.8 min; in data set [4] (1 μM), 12.6 min; in data set [5] (1 μM), 60.3 min. For the same molecule, the results for the CLint(mic) in data set [4] (1 μM) and in data set [5] (1 μM) were 110 µL/min/mg and 23 µL/min/mg, respectively. Moreover, the figures for the “Detection of assay compound content within 120 min” value in data set [6] and in data set [8] were 100% and 96%, respectively. For the same molecule, the “Detection of assay compound content within” value in data set [7] is reported as 104%.
Turning to `C=C(F)C(=O)N1CCN(c2nc(OC[C@@]34CCCN3C[C@H](F)C4)nc3c2COC(c2c(F)c(N)cc(C)c2C(F)(F)F)C3)C[C@@H]1CC#N` (stereo partly drawn) [Compound 17], the results for the “CLint(hep)” value in data set [1] (1 μM), in data set [2] (1 μM) and in data set [3] (1 μM) were 67.4 μL/min/10^6, 51.3 μL/min/10^6 and 7.6 μL/min/10^6, respectively. The half-life – broadly, the time in which the quantity being followed falls by half – at 1 μM in data set [1] (rat, cryopreserved hepatocytes) is 20.6 min; in data set [2] (cynomolgus monkey, cryopreserved hepatocytes), 27 min; in data set [3] (dog, cryopreserved hepatocytes) it was 182 min; in data set [4] (mouse), 4.9 min; in data set [5], 20.4 min. Moreover, the CLint scaled at 1 μM in data set [1] (rat, cryopreserved hepatocytes, read-out: CLint(liver)) was 315 mL/min/kg; in data set [2] (cynomolgus monkey, cryopreserved hepatocytes, read-out: CLint(liver)), 185 mL/min/kg; in data set [3] (dog, cryopreserved hepatocytes, read-out: CLint(liver)) it was 52.3 mL/min/kg; in data set [4] (mouse), 1130 mL/min/kg; in data set [5] it was 61.1 mL/min/kg. Moreover, the CLint(mic) in data set [4] (1 μM) stood at 285 µL/min/mg; in data set [5] (1 μM) it was 67.9 µL/min/mg. Further, the “Detection of assay compound content within 120 min” value came out at 117% in data set [6] and 102% in data set [8]. For the same molecule, in data set [7], the “Detection of assay compound content within” value was determined as 115%.

The record behind these values is patent US12012404B2, “Pyrimidoheterocyclic compounds and application thereof” (D3 BIO (WUXI) CO., LTD., priority 2020, dated 2024).
